Source: patent EP4273142A1 (Université de Bretagne Occidentale, priority 2022, dated 2023)
“Also recorded” adds a separate entry of the source. Like-named read-outs stand apart in the source and are kept apart here. Marks after values point to notes of the source that are not given here.

Assays:
[1] = Ligand protonation equilibria by potentiometric titration; type: physicochemical; settings: 1.0 m kcl
[2] = Pd(II) complexation equilibria by UV spectrophotometry and potentiometry; settings: for log KML: stability constant of the Pd(II) complex, 25°C in 1.0 M KCl
[3] = Acid-mediated dissociation (cold inertness) followed by 1H NMR; type: physicochemical; settings: Pd(II) complex, 5 M DCl (HCl 5M), 90°C, up to five months, 0.05M
[4] = cited from earlier work
[5] = EDTA challenge (transchelation) of 109Pd-labelled complexes, radio-HPLC; settings: pbs, 1000 eq edta, pH 7
[6] = pbs, 1000 eq edta, 24 h, pH 7
[7] = Table 5, stepwise protonation constant in log units, read-out: H2L + H^+ ⇄H3L
[8] = Table 5, stepwise protonation constant in log units, read-out: H3L + H^+ ⇄H4L
[9] = Table 5, stepwise protonation constant in log units, read-out: HL + H^+ ⇄H2L
[10] = Table 5, stepwise protonation constant in log units, read-out: L + H^+ ⇄HL
[11] = Table 6, overall constant in log units, read-out: L + H^+ ⇄HL
[12] = Table 5, complexation constant in log units, […], 1.0 M (K,H)Cl
[13] = Table 6, overall formation constant in log units, […], 1.0 M (K,H)Cl

Molecule	pKa [1, 7]	pKa [1, 8]	pKa [1, 9]	pKa [1, 10]	pKa [1, 11]	Pd^2+ + L ⇄PdL [2, 12]	Pd^2+ + L ⇄PdL [2, 13]	log KML [2]	Dissociation [3]	further results
c1ccc(CN2CCCNCCNCCCNCC2)cc1 [TE1Bn, reference compound]	2.21	2.89	9.39	11.3	11.3	> 43	>43	> 43		
O=C(O)c1cccc(CN2CCCNCCNCCCNCC2)n1 [TE1PA, 6-((1,4,8,11-tetraazacyclotetradecan-1-yl)methyl)picolinate]	3.05	2.28	10.1	11.1	11.1					pKa ([1]; Table 5, stepwise protonation constant in log units, read-out: H4L + H^+ ⇄H5L): 1.69; PdHL + H^+ ⇄PdH2L ([2]; Table 5, stepwise protonation constant of the Pd(II) complex in log units, […], 1.0 M KCl): 1.8(1)
c1ccc(CN2CCCNCCNCCCNCC2)nc1 [TE1Py]	2.65	2.83	10.4	11.5	11.5	42.6(1)	42.6(1)	42.6		Pd^2+ + L + H^+ ⇄PdHL ([2]; Table 6, overall formation constant in log units, determined by UV spectrophotometry, pH 0-1.5, […], 1.0 M (K,H)Cl): 44.2(1) ^b
C1CNCCNCCCNCCNC1.[Cl-].[Cl-].[Pd+2] [[Pd(cyclam)]^2+, Palladium(II) 1,4,8,11-tetraazacyclotetradecane dichloride, reference compound]									neither [Pd(cyclam)]^2+ nor [Pd(TE1PA)]^2+ present any significant dissociation; also recorded: HCl 5M, 90°C: Inert	log KML ([4]; Pd(II) cyclam complex, 25°C in 0.1 M NaClO4, Harrington et al. 2005, value estimated): log KML = 56,9; degraded at 24 h [5]: 13%
OCCN1CCCN(CCO)CCN(CCO)CCCN(CCO)CC1 [tetra(2-hydroxyethyl) cyclam]										log KML ([4]; Pd(II) complex, Hay et al. 1987): 18.32
Palladium (II) 6-methylpicolinate-1,4,8,11-tetraazacyclotetradecane tetrachloropalladate [[Pd(TE1PA)]^2+]								log KML = 38.4	neither [Pd(cyclam)]^2+ nor [Pd(TE1PA)]^2+ present any significant dissociation; also recorded: HCl, 5M, 90°C: Inert	demetallation [6]: 9% demetallation
